Among the test systems are A498; A549; HCT-15; HOP-62; HT-29; IGROV-1; MDA-N; MOLT-4; Malme-3M; NCI-H226; NCI-H460; OVCAR-8; PC-3; SF-539; SN12C; SNB-19; T47D; TK-10; U-251; UACC-62.
Holding throughout (experiment): NCI tumour cell line growth inhibition, 48 h

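The compound was tested at five concentrations on cells cultured in 96-well plates, with a 48-hour exposure period. GI50 marks 50% less growth.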 Calls of active or inactive are those of the source. No stated cut-off is given here; in the data, active = GI50 up to about 1.1 µM and inactive = higher. Bounds are passed on as bounds.

As to `COC(=O)/C=C1/OC(c2ccc(Br)cc2)=C(Br)C1=O`, the GI50 in the experiment on A498 is 16.6 µM (inactive); with A549 it was 16 µM (inactive); in the experiment with HCT-15, 5.14 µM; in the experiment on HOP-62, 7.57 µM (inactive); in the experiment with HT-29 it was 4.29 µM (inactive); with IGROV-1, 6.34 µM (inactive). Further, the GI50 with MDA-N was 5.26 µM (inactive); with MOLT-4, 2.42 µM (inactive); in the experiment with Malme-3M, 7.94 µM (inactive); in the experiment on NCI-H226, 14.4 µM (inactive); in the experiment with NCI-H460, 14.5 µM (inactive); with OVCAR-8 it was 3.29 µM (inactive). In addition, the GI50 was 6.93 µM (inactive) in the experiment with PC-3; 5.94 µM (inactive) in the experiment on SF-539; 6.92 µM (inactive) with SN12C; 10.4 µM (inactive) in the experiment with SNB-19; 5.55 µM (inactive) in the experiment on T47D; 6.59 µM (inactive) in the experiment with TK-10. Further, the GI50 in the experiment on U-251 is 2.57 µM (inactive); in the experiment with UACC-62, 7.05 µM (inactive).

On to `CN1CCc2c(sc3ncn(Nc4ccc(Cl)cc4)c(=N)c23)C1`, for which the GI50 is > 100 µM (inactive) with A498; > 100 µM (inactive) with A549; > 100 µM in the experiment on HCT-15; > 100 µM (inactive) in the experiment on HOP-62; > 100 µM (inactive) in the experiment with HT-29; > 100 µM (inactive) in the experiment with IGROV-1. Also, the GI50 with MDA-N, in the experiment with MOLT-4, with Malme-3M, with NCI-H226, in the experiment with NCI-H460 and with OVCAR-8 was > 100 µM (inactive) each time. Further, the GI50 with PC-3, with SF-539, in the experiment on SN12C, in the experiment with SNB-19, with T47D and with TK-10 was > 100 µM (inactive) throughout. In addition, the GI50 in the experiment on U-251 and with UACC-62 was > 100 µM (inactive) throughout.

Turning to `COc1ccc(/N=N/c2ccc3oc(=O)c(C(=O)Nc4ccccc4)cc3c2)cc1`, the GI50 was > 10 µM (inactive) in the experiment on A498; > 10 µM (inactive) in the experiment with A549; > 9.23 µM with HCT-15; > 10 µM (inactive) in the experiment on HOP-62; > 10 µM (inactive) in the experiment on HT-29; > 10 µM (inactive) in the experiment on IGROV-1. The GI50 was > 10 µM (inactive) with MDA-N; 6.4 µM (inactive) in the experiment with MOLT-4; > 10 µM (inactive) with Malme-3M; > 10 µM (inactive) in the experiment with NCI-H226; > 10 µM (inactive) in the experiment with NCI-H460; > 8.51 µM (inactive) in the experiment on OVCAR-8. Besides, the GI50 in the experiment on PC-3 is > 6.01 µM (inactive); in the experiment with SF-539, > 9.31 µM (inactive); with SN12C, > 10 µM (inactive); in the experiment with SNB-19, > 10 µM (inactive); with T47D, 4.5 µM (inactive); in the experiment with TK-10 it was > 10 µM (inactive). Besides, the GI50 with U-251 and in the experiment on UACC-62 was > 10 µM (inactive) in each case.

On to `CS(=O)(=O)OCCN(CCOS(C)(=O)=O)c1ccc(/C=N/c2ccc(-c3csc(Cc4ccccc4)n3)cc2)c(Cl)c1`, for which the GI50 with A498 was 0.102 µM (active); with A549, 11.6 µM (inactive); in the experiment on HCT-15, 30.3 µM; in the experiment on HOP-62 it was 13 µM (inactive); with HT-29, 21.9 µM (inactive); with IGROV-1 it was 18.2 µM (inactive). Also, the GI50 in the experiment with MDA-N is 21.6 µM (inactive); in the experiment with MOLT-4, 17.2 µM (inactive); in the experiment with Malme-3M it was 37.1 µM (inactive); in the experiment on NCI-H226, 0.218 µM (active); with NCI-H460, 0.387 µM (active); with OVCAR-8, 27.4 µM (inactive). The GI50 with PC-3 is 22.5 µM (inactive); in the experiment on SF-539 it was 22.8 µM (inactive); in the experiment with SN12C, 28.8 µM (inactive); in the experiment on SNB-19, > 45.3 µM (inactive); with T47D it was 30.8 µM (inactive); in the experiment on TK-10, 3.93 µM (inactive). In addition, the GI50 with U-251 is 28.2 µM (inactive); in the experiment on UACC-62, 6.5 µM (inactive).

For the origin of these results see ChEMBL document CHEMBL1201862, “PubChem BioAssay data set” (2004).
